Experimental data published in patent US20040067507A1, “Liver inflammation predictive genes” (priority 2002, published 2004).
Where two headings read alike, the source gives them in different places.

System: Sprague Dawley rats Crl:CD
Format: in vivo, rat
Settings: 72 h; for Inflamm. Score / Necr. Score: 1=no histopathology, 2 or higher=increasing severity
Description: In addition to the database described and utilized herein, other toxicology gene expression databases may be generated, and used to identify additional liver toxicity biomarkers, which may also be employed in the practice of the liver inflammation prediction methods of the invention. […] An example of compounds, dose levels, liver toxicity classifications and histopathology scores used in the Examples which follow are provided in Table 1. The compounds and dose levels are abbreviated in the Abbreviation Column. The Inflammation Score relates the histopathology liver inflammation, a score of “2” or higher indicates histopathology of increasing severity.
Identification of Correlating Genes: For the purpose of identifying candidate predictive genes, the database preferably includes histopathology scores for each animal which has been exposed to one or more agent(s). […] The scores are numerical scores that reflect the occurrence and severity of histopathological changes. These scores can be adjusted to have similar range to gene expression changes. […] Because the scores are numerical, they are suitable for use with a variety of statistical correlation and similarity measures.
Sprague Dawley rats Crl:CD from Charles River, Raleigh, N.C. were divided into treated rats that receive a specific concentration of the compound (see Table 1) and the control rats that only received the vehicle in which the compound is mixed (e.g., saline).
At specified timepoints (6 h, 24 h and 72 h) after administration (intraperitoneal route) of the compound, a set number of rats (usually 3 control and 3 treated) were euthanized and tissues collected. Each rat was heavily sedated with an overdose of CO2 by inhalation and a maximum amount of blood drawn. Exsanguination of the rat by this drawing of blood kills the rat. The method of collecting the tissues is very important and ensures preserving the quality of the mRNA in the tissues. The body of the rat was then opened up and prosectors rapidly removed the tissues (including liver) and immediately placed them into liquid nitrogen. […] The organs/tissues were then packaged into well-labeled plastic freezer quality bags and stored at −80 degrees until needed for isolation of the mRNA from a portion of the organ/tissue sample.
Correlation with Histopathology Scores: Histopathology scores for each animal (assigned on a compound-dose basis as indicated in Table 1) were entered with gene expression data by using the GeneSpring™ ‘Drawn Gene’ function. Correlations between inflammation histopathology scores and gene expression were conducted with the distance measures listed below: […]

## Nc1nc(O)c2ncn(COC(CO)CO)c2n1 [gancyclovir]
50 mg/kg i.p.
  Liver Inflammation: no
  Liver Necrosis: no
  Inflamm. Score: 1
  Necr. Score: 1
200 mg/kg i.p.
  Liver Inflammation: no
  Liver Necrosis: no
  Inflamm. Score: 1
  Necr. Score: 1

## CCC(=O)O[C@H]1[C@H](O[C@@H]2[C@@H](C)[C@H](O[C@H]3C[C@@](C)(OC)[C@@H](O)[C@H](C)O3)[C@@H](C)C(=O)O[C@H](CC)[C@@](C)(O)[C@H](O)[C@@H](C)C(=O)[C@H](C)C[C@@]2(C)O)O[C@H](C)C[C@@H]1N(C)C [erythromycin estolate]
40 mg/kg i.p.
  Liver Inflammation: no
  Liver Necrosis: no
  Inflamm. Score: 1
  Necr. Score: 1
160 mg/kg i.p.
  Liver Inflammation: no
  Liver Necrosis: no
  Inflamm. Score: 1
  Necr. Score: 1

## CN(Cc1cnc2nc(N)nc(N)c2n1)c1ccc(C(=O)N[C@@H](CCC(=O)O)C(=O)O)cc1 [methotrexate]
1.3 mg/kg i.p.
  Liver Inflammation: no
  Liver Necrosis: no
  Inflamm. Score: 1
  Necr. Score: 1
5 mg/kg i.p.
  Liver Inflammation: no
  Liver Necrosis: no
  Inflamm. Score: 1
  Necr. Score: 1
